Where two headings read alike, the source gives them in different places. Some results are limits rather than exact numbers.

In one test the test system is A375. Description: WST-1 cell proliferation assay (Example 2). The test is classed as cell-based. How it is done: (§1) Cell viability was determined using the WST-1 cell proliferation assay. Data are means±s.d. (n=3). FIG. 7B: Long-term colony formation assay of the indicated cell lines. Cells were grown in the absence or presence of vemurafenib at the indicated concentrations for two weeks. For each cell line, all dishes were fixed at the same time, stained and photographed.
(§2) Cell proliferation was measured using a WST-1 reagent (Roche Applied Science, IN, USA). Melanoma cells were plated (5000 cells per well) in 96-well tissue culture plates. After 24 h, the cells were treated with drugs or DMSO at the indicated concentrations, in triplicates. WST-1 reagent was added to the wells and incubated at 37° C. for 2 h before and after the treatment period of 48 h. […] Cell proliferation is expressed as percent of the absorbance compared to mock-treated cells.
(Tetrazolium assays rely on reduction of a dye to a coloured formazan, in cell work by metabolically active cells.)

The next test deals with Mel10. Description: WST-1 cell proliferation assay (Example 2). It counts as cell-based. As for the experimental part: as §1, §2
Another test has as its system Mel888. Description: WST-1 cell proliferation assay (Example 2). It counts as cell-based. How it is done:
as §1, §2

Another test has as its system SKMEL 28. The test can be described thus: WST-1 cell proliferation assay (Example 2). The test is classed as cell-based. As for the experimental part:
as §1, §2

In test [1] the test system is A2058. Description: WST-1 cell proliferation assay (Example 2). The test is classed as cell-based. The note with it: for sensitivity of the cell line compared to other cell lines (e.g. A375, Mel888): A2058, short-term and long-term proliferation assays, Example 2; for IC50: A2058, 48 h. How it is done: as §1
(§3) Cell viability was determined using the WST-1 cell proliferation assay. Data are means±s.d. (n=4). […] The upper left region of the figure represents increasing degrees of synergy. The minimum and maximum Bliss index values were shown as an interval within square brackets under each isobologram. The Bliss index was calculated as the ratio Observed/Expected where an index=1, […] and >1 indicates additive, antagonistic and synergistic effects, respectively.
as §2
(§4) For clonogenic assays, cells were plated at low density (1×10^3 cells per well in a 6-well tissue culture plates) in fresh media. After 24 h, cells were treated with drugs or DMSO at the indicated concentrations, in duplicates. After 14 days cells were stained with 0.5% (w/v) crystal violet in 70% ethanol and the number of colonies was counted.

The test system of test [2] is Mel624. The test can be described thus: WST-1 cell proliferation assay (Example 2). It counts as cell-based. The settings on record: for sensitivity of the cell line compared to other cell lines (e.g. A375, Mel888): Mel624, short-term and long-term proliferation assays, Example 2. As for the experimental part:
as §1, §3, §2, §4

The test system of test [3] is A2058. Description: Short-term growth-inhibition assay (Example 1). It counts as cell-based. The settings on record: A2058; short-term and long-term proliferation assays, Example 1. As for the experimental part:
(§5) FIGS. 1A-1B: Short-term growth-inhibition assay of a panel of melanoma cell lines including BRAF (V600E) cell lines and an NRAS (Q61R) mutated cell line. FIG. 1A. Cells were treated with increasing concentrations of N-[3-[(5-Chloro-1H-pyrrolo[2,3-b]pyridin-3-yl)carbonyl]-2,4-difluorophenyl]-1-propanesulfonamide (PLX-4720) for 72 h and cell viability was determined using CellTiter-Blue by measuring the absorbance at 540 nm in a microplate reader. Error bars show data +standard error. Means were derived from four replicates (n=4). FIG. 1B. Long-term colony formation assay of the indicated cells. Cells were grown in the absence or presence of PLX-4720 at the indicated concentrations for 15-20 days. For each cell line, all dishes were fixed at the same time, stained and photographed. […]
(§6) The inventors quantified the effect of exposing these cell lines to PLX-4720 on the half-maximum inhibitory concentration (IC50) (Table 1).

In test [4] the test system is Mel624. Description: Short-term growth-inhibition assay (Example 1). The test is classed as cell-based. The settings on record: Mel624; short-term and long-term proliferation assays, Example 1. As for the experimental part:
as §5, §6

A further test concerns melanoma. The settings on record: patients, cited from earlier work.
Where [5] appears, read: Homo sapiens, A-375, A375, 48 h, read-out: IC50.
Setting [6] is: Homo sapiens, SK-MEL-28, SKMEL 28, 48 h, read-out: IC50.

One may read the IC50 as the concentration that inhibits the measured activity by half. In the case of `O=C(NOC[C@H](O)CO)c1ccc(F)c(F)c1Nc1ccc(I)cc1F` [PD 0325901], the IC50 with A375 (setting [5]) was found to be 10 nM; in the test on Mel10 (MEL10, 48 h, read-out: IC50) it was 3 nM; with Mel888 (Mel888, 48 h, read-out: IC50), 2 nM; in the test with SKMEL 28 (setting [6]), 9 nM; in the test with A2058 [1] (Homo sapiens, read-out: IC50) it was 33 nM; in the test on Mel624 [2] (Mel624, 48 h, read-out: IC50), 96 nM. The “sensitivity of the cell line compared to other cell lines (e.g. A375, Mel888)” value in the test with A2058 [1] and in the test with Mel624 [2] was “less sensitive” each time.
`O=C(O)C(Cc1ccccc1[N+](=O)[O-])=NNc1nc(-c2ccc(Cl)c(Cl)c2)cs1` (mixture of isomers) [4EGi-1]: the “sensitivity of the cell line compared to the other BRAF (V600E)-mutated melanoma cell lines” value in the test with A2058 [3] and in the test on Mel624 [4] was “more sensitive” each time. The IC50 was > 100000 nM with A375 (A375, 48 h, read-out: IC50); > 100000 nM in the test with Mel10 (MEL10, 48 h, read-out: IC50); 77000 nM in the test on Mel888 (Mel888, 48 h, read-out: IC50); > 100000 nM with SKMEL 28 (SKMEL 28, 48 h, read-out: IC50); 50000 nM in the test on A2058 [1] (read-out: IC50); 26000 nM in the test with Mel624 [2] (Mel624, 48 h, read-out: IC50). The “sensitivity of the cell line compared to other cell lines (e.g. A375, Mel888)” value with A2058 [1] and in the test on Mel624 [2] was “more sensitive” in each case.
On to `Nc1ncnc2n[nH]c(Nc3ccc(F)cc3)c12` [CGP 57380], for which the IC50 in the test on A375 (A375, 48 h, read-out: IC50) was 35000 nM; in the test on Mel10 (MEL10, 48 h, read-out: IC50) it was 28000 nM; with Mel888 (Mel888, 48 h, read-out: IC50) it was 25000 nM; with SKMEL 28 (SKMEL 28, 48 h, read-out: IC50), 60000 nM; in the test on A2058 [1] (read-out: IC50), > 100000 nM; in the test on Mel624 [2] (Mel624, 48 h, read-out: IC50) it was > 100000 nM. For the same compound, the “sensitivity of the cell line compared to other cell lines (e.g. A375, Mel888)” value with A2058 [1] and in the test on Mel624 [2] was “less sensitive” throughout.
For `CCCS(=O)(=O)Nc1ccc(F)c(C(=O)c2c[nH]c3ncc(-c4ccc(Cl)cc4)cc23)c1F` [Vemurafenib], the IC50 in the test with A375 (setting [5]) is 400 nM; in the test with Mel10 (MEL10, 48 h, read-out: IC50) it was > 10000 nM; in the test with Mel888 (Mel888, 48 h, read-out: IC50) it was 100 nM; in the test on SKMEL 28 (setting [6]), 400 nM; in the test on A2058 [1] (Homo sapiens, read-out: IC50), 2400 nM; in the test on Mel624 [2] (Mel624, 48 h, read-out: IC50), 2000 nM.
Consider `COC(=O)[C@H]1[C@@H](O)[C@@]2(O)c3c(OC)cc(O[C@@H]4O[C@@H]([C@H](O)CO)CO[C@H]4OC)cc3O[C@@]2(c2ccc(OC)cc2)[C@@H]1c1ccccc1` [Silvestrol], for which the half-maximal inhibitory concentration (IC50) in the test with A375 (Homo sapiens, A-375, 48 h) worked out at 21 nM; in the test on Mel10 (48 h), 46 nM; with Mel888 (48 h) it was 17 nM; with SKMEL 28 (Homo sapiens, SK-MEL-28, 48 h), 3 nM; in the test with A2058 [1] (Homo sapiens), 2 nM; in the test with Mel624 [2] (48 h), 4 nM.
On to `CC(C)(C)c1nc(-c2cccc(NS(=O)(=O)c3c(F)cccc3F)c2F)c(-c2ccnc(N)n2)s1` [dabrafenib], for which the “response rate (objective responses)” value with melanoma is on record as 50%. Further, the progression-free survival with melanoma (compared with chemotherapy) is reported as 5.1 months. The “progression-free survival hazard ratio” value with melanoma (versus chemotherapy) was 0.30.
